Reference: patent US20080004271A1, “Inhibitors of TNFalpha, PDE4 and B-RAF, compositions thereof and methods of use therewith” (priority 2006, published 2008)

What was measured:
[1] = tested on: A375 cells; assay: Alamar Blue Viability Assay; format: cell-based; conditions: 3 days
Experimental: A375 cells (ATCC # CRL-1619; Passage 4˜15; doubling time is roughly 18 hours) are used. Culture medium is DMEM (high glucose, with L-glutamine)+10% FBS+Pen/Strep. Cells are passed every three days at 1:20.
200 μl of medium only is added into all wells along the edges of a 96-well flat bottom plate and 180 μl of cell suspension (containing 1,000 cells) per well is added into the plate with a Low Evaporation Lid (Costar Cat # 3595). The cells are cultured overnight. Compounds and controls are diluted according to standard compound dilution protocol described below. From 30 mM stock solution, 10 mM, 3 mM, 1 mM, and 0.3 mM solutions in 100% DMSO are prepared using the following serial dilution protocol:
The 30, 10, 3, 1 and 0.3 mM solutions are diluted 1:50 (DMSO:medium) by adding 4 μl of each to 196 μl of culture medium. This yields 600 μM, 200 μM, 60 μM, 20 μM, and 6 μM secondary stock solutions. 4 μl of DMSO are added to 196 μl medium for the DMSO control as well. 20 μl of compound dilutions, including the DMSO control locations (Row G, Columns 2-10 are DMSO control wells), are added in triplicate to the cells in the 96-well plate using a repeat pipettor (see plate layout below). This yields final concentrations of 60 μM, 20 μM, 6 μM, 2 μM, and 0.6 μM containing 0.2% DMSO in each well. The plate is gently tapped to evenly distribute compound within the well. The plate is incubated at 5% CO2 at 37° C. for 3 days.
20 μl of Alamar Blue (Biosource #DAL-1100) is added to each well. The plate is incubated in 5% CO2 incubator for 4 hours. Fluorescence is measured with excitation wavelength at 530 nm and emission wavelength at 590 nm using a Victor 2 multilabel plate reader (Perkin Elmer). Data is saved with plate format as a Text file and entered into ActivityBase (Cell-based SAR; Prolif-Alamar; MTT 5 plates unfixed fit) to calculate the percent of DMSO values for each compound set of triplicate wells and IC50 curves are plotted.

[2] = biological target: T1, V600E mutant B-RAF (Homo sapiens, UniProt P15056, V600E); assay: V600E Mutant B-RAF 33P Assay; format: biochemical
T1 construct: purchased Upstate
Experimental: Substrate (HIS-MEK1 K97M) is prepared by Celgene Corp. as described above.
Test compound is diluted in 100% DMSO (600 μM). […] Substrate mixture is prepared as 7.5 μM HIS-MEK1 K97M in assay buffer. ATP mixture is prepared as 300 μM ATP, 75 mM MgCl2, 0.05 μCi/μl ^33P ATP in assay buffer.
In a 96 well assay plate (Falcon Polylpropylene well U-bottom), the following are added to each well: 2.5 μl of test compound solution (serial dilutions), 20 μl of substrate mixture and 17.5 μl of enzyme mixture. The plate is incubated for at least 15 minutes. 10 μl of ATP mixture is added and the plate is incubated at room temperature for about 60 minutes. 80 μl of 12.5% TCA is added to each well, and the plate is incubated for at least 20 minutes. The contents of the plate is transferred to a glass fiber filter plate (Millipore) using a Packard Harvester (washing 10× with 1×PBS). 50 μl of Scintillation-20 fluid is added to each well. The plate is read using a Packard TopCount.

T1 sequence (P15056 whole entry V600E): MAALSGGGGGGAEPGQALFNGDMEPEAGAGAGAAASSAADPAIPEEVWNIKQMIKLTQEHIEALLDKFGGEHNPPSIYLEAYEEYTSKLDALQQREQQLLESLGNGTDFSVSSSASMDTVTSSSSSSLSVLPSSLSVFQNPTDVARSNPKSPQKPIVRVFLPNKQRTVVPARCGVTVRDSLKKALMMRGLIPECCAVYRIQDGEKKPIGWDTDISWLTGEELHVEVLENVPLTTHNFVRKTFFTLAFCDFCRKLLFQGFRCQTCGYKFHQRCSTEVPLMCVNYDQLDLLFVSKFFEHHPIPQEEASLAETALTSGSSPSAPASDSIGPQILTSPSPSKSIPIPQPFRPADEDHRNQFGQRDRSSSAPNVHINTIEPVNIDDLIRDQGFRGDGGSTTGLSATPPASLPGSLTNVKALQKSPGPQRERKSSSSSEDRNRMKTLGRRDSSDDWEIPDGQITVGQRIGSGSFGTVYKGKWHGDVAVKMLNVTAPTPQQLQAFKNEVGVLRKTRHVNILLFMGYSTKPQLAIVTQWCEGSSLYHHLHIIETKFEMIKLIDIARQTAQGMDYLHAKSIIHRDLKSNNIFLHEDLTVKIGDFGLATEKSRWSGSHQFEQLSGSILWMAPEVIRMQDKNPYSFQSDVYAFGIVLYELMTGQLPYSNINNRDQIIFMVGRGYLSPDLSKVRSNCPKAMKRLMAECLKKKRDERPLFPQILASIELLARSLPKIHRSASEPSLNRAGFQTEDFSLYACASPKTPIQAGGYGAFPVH

NC(=O)c1sc2ncnc(-c3cccc(NC(=O)Nc4ccccn4)c3)c2c1N [Example 294]
IC50 ([1]; Homo sapiens, A-375, 72 h): 10 to 20 µM

NC(=O)c1sc2nc(NC3CC3)nc(-c3ccc(OCc4ccccc4)nc3)c2c1N [Example 168]
IC50 [2]: 0.1 to 10 µM
IC50 ([1]; Homo sapiens, A-375, 72 h): 20 to 30 µM

NC(=O)c1sc2ncnc(-c3cccc(NC(=O)Nc4cccnc4)c3)c2c1N [Example 293]
IC50 [2]: 0.1 to 10 µM
IC50 ([1]; Homo sapiens, A-375, 72 h): 10 to 20 µM

NC(=O)c1sc2nc(NC3(CO)CCC3)nc(-c3ccc(Cl)c(Cl)c3)c2c1N [Example 281]
IC50 [2]: 0.1 to 10 µM
IC50 ([1]; Homo sapiens, A-375, 72 h): 10 to 20 µM

NC(=O)c1sc2nc(NC3CC3)nc(-c3c(F)cccc3F)c2c1N [Example 187]
IC50 [2]: 0.1 to 10 µM
IC50 ([1]; Homo sapiens, A-375, 72 h): 20 to 30 µM

CC(C)[C@@H](CO)Nc1nc(-c2ccc(Cl)c(Cl)c2)c2c(N)c(C(N)=O)sc2n1 [Example 272]
IC50 [2]: 0.1 to 10 µM
IC50 ([1]; Homo sapiens, A-375, 72 h): 10 to 20 µM

NC(=O)c1sc2nc(NC3CC3)nc(-c3ccccc3OCc3ccccc3)c2c1N [Example 182]
IC50 [2]: 30 to 60 µM
IC50 ([1]; Homo sapiens, A-375, 72 h): 30 to 60 µM

NC(=O)c1nc(-c2ccc(Cl)c(Cl)c2)c2c(N)c(C(N)=O)sc2n1 [Example 193]
IC50 [2]: 0.1 to 10 µM
IC50 [1]: 20 to 30 µM

NC(=O)c1sc2nc(N[C@@H]3CCOC3)nc(-c3ccc(Cl)c(Cl)c3)c2c1N [Example 229]
IC50 [2]: 0.1 to 10 µM
IC50 ([1]; Homo sapiens, A-375, 72 h): 10 to 20 µM

COc1cccc(-c2nc(N)nc3sc(C(N)=O)c(N)c23)c1 [Example 184]
IC50 [2]: 0.1 to 10 µM
IC50 ([1]; Homo sapiens, A-375, 72 h): 20 to 30 µM

COc1ccc(NC(=O)Nc2cccc(-c3ncnc4sc(C(N)=O)c(N)c34)c2)cc1 [Example 283]
IC50 ([1]; Homo sapiens, A-375, 72 h): 10 to 20 µM

NC(=O)c1sc2ncnc(-c3cccc(N)c3)c2c1N [Example 290]
IC50 ([1]; Homo sapiens, A-375, 72 h): 10 to 20 µM

NC(=O)c1sc2nc(NC3CC3)nc(-c3ccc(O)nc3)c2c1N [Example 170]
IC50 [2]: 30 to 60 µM
IC50 ([1]; Homo sapiens, A-375, 72 h): > 60 µM

NC(=O)c1sc2ncnc(-c3cc4c(c(OCc5ccccc5)c3)CCO4)c2c1N [Example 266]
IC50 [2]: > 60 µM
IC50 ([1]; Homo sapiens, A-375, 72 h): 10 to 20 µM

NC(=O)c1sc2nc(NC3CC3)nc(Nc3ccc(Cl)c(Cl)c3)c2c1N [Example 279]
IC50 [2]: 30 to 60 µM
IC50 ([1]; Homo sapiens, A-375, 72 h): 0.1 to 10 µM

NC(=O)Cc1nc(-c2ccc(Cl)c(Cl)c2)c2c(N)c(C(N)=O)sc2n1 [Example 254]
IC50 [2]: 0.1 to 10 µM
IC50 ([1]; Homo sapiens, A-375, 72 h): > 60 µM

NC(=O)c1sc2ncnc(-c3cc(O)c4c(c3)OCC4)c2c1N [Example 267]
IC50 [2]: 0.1 to 10 µM
IC50 ([1]; Homo sapiens, A-375, 72 h): 10 to 20 µM

CC(C)(CN1CCCC1)Nc1nc(-c2ccc(Cl)c(Cl)c2)c2c(N)c(C(N)=O)sc2n1 [Example 216]
IC50 [2]: 0.1 to 10 µM
IC50 ([1]; Homo sapiens, A-375, 72 h): 10 to 20 µM

COc1ccnc(-c2nc(NC(C)(C)CO)nc3sc(C(N)=O)c(N)c23)c1 [Example 284]
IC50 [2]: 30 to 60 µM
IC50 ([1]; Homo sapiens, A-375, 72 h): 10 to 20 µM

CC(O)CCNc1nc(-c2ccc(Cl)c(Cl)c2)c2c(N)c(C(N)=O)sc2n1 (centres unmarked) [Example 221]
IC50 [2]: 0.1 to 10 µM
IC50 ([1]; Homo sapiens, A-375, 72 h): 10 to 20 µM

NC(=O)c1sc2nc(NC3CC3)nc(-c3ccnc(O)c3)c2c1N [Example 237]
IC50 [2]: 10 to 20 µM
IC50 ([1]; Homo sapiens, A-375, 72 h): > 60 µM

CC(C)(O)CNc1nc(-c2ccc(Cl)c(Cl)c2)c2c(N)c(C(N)=O)sc2n1 [Example 215]
IC50 [2]: 0.1 to 10 µM
IC50 ([1]; Homo sapiens, A-375, 72 h): 10 to 20 µM

NC(=O)c1sc2ncnc(-c3cccc([N+](=O)[O-])c3)c2c1N [Example 289]
IC50 ([1]; Homo sapiens, A-375, 72 h): 10 to 20 µM

NC(=O)c1sc2nc(NC3CC3)nc(-c3ccnc(Cl)c3)c2c1N [Example 236]
IC50 [2]: 0.1 to 10 µM
IC50 ([1]; Homo sapiens, A-375, 72 h): 30 to 60 µM

NC(=O)c1sc2nc(NC3CC3)nc(-c3ccccc3F)c2c1N [Example 186]
IC50 [2]: 0.1 to 10 µM
IC50 ([1]; Homo sapiens, A-375, 72 h): 20 to 30 µM

CC(C)(C)Nc1nc(-c2ccc(Cl)c(Cl)c2)c2c(N)c(C(N)=O)sc2n1 [Example 209]
IC50 [2]: 0.1 to 10 µM
IC50 ([1]; Homo sapiens, A-375, 72 h): 10 to 20 µM

NC(=O)c1nc(-c2ccc(Cl)c(Cl)c2)c2c(N)c(C(N)=O)sc2n1 [Example 268]
IC50 [2]: 0.1 to 10 µM
IC50 ([1]; Homo sapiens, A-375, 72 h): 30 to 60 µM

COc1cncc(-c2nc(N[C@@H](C)CO)nc3sc(C(N)=O)c(N)c23)c1 [Example 177]
IC50 ([1]; Homo sapiens, A-375, 72 h): 10 to 20 µM

NC(=O)c1sc2ncnc(-c3cccc(Nc4nc5cc(C(F)(F)F)ccc5o4)c3)c2c1N [Example 288]
IC50 [2]: 0.1 to 10 µM
IC50 ([1]; Homo sapiens, A-375, 72 h): 10 to 20 µM

NC(=O)c1sc2nc(NC3CC3)nc(Nc3ccccc3)c2c1N [Example 278]
IC50 [2]: 10 to 20 µM
IC50 ([1]; Homo sapiens, A-375, 72 h): 30 to 60 µM

NC(=O)c1sc2ncnc(-c3cccc(Nc4nc5cc(C(F)(F)F)ccc5[nH]4)c3)c2c1N [Example 287]
IC50 ([1]; Homo sapiens, A-375, 72 h): 0.1 to 10 µM

CC(C)(CO)Nc1nc(-c2cccc(C(F)F)c2)c2c(N)c(C(N)=O)sc2n1 [Example 286]
IC50 [2]: 0.1 to 10 µM
IC50 ([1]; Homo sapiens, A-375, 72 h): 10 to 20 µM

CCc1cncc(-c2nc(NC(C)(C)CO)nc3sc(C(N)=O)c(N)c23)c1 [Example 178]
IC50 [2]: 0.1 to 10 µM
IC50 ([1]; Homo sapiens, A-375, 72 h): 10 to 20 µM

CC(C)(CO)Nc1nc(-c2cncc(O)c2)c2c(N)c(C(N)=O)sc2n1 [Example 180]
IC50 [2]: 0.1 to 10 µM
IC50 ([1]; Homo sapiens, A-375, 72 h): 10 to 20 µM

CCCCNc1nc(-c2ccc(Cl)c(Cl)c2)c2c(N)c(C(N)=O)sc2n1 [Example 223]
IC50 [2]: 0.1 to 10 µM

NC(=O)c1sc2nc(NC3CC3)nc(-c3ccccc3O)c2c1N [Example 183]
IC50 [2]: 0.1 to 10 µM
IC50 ([1]; Homo sapiens, A-375, 72 h): 30 to 60 µM

NC(=O)c1sc2nc(NC3CC3)nc(-c3cccc(N)c3)c2c1N [Example 245]
IC50 ([1]; Homo sapiens, A-375, 72 h): > 60 µM

NC(=O)c1sc2nc(CC(=O)O)nc(-c3ccc(Cl)c(Cl)c3)c2c1N [Example 255]
IC50 [2]: 0.1 to 10 µM
IC50 ([1]; Homo sapiens, A-375, 72 h): > 60 µM

CC(C)(CO)Nc1nc(-c2cncc(OCc3ccccc3)c2)c2c(N)c(C(N)=O)sc2n1 [Example 179]
IC50 [2]: 30 to 60 µM
IC50 ([1]; Homo sapiens, A-375, 72 h): 10 to 20 µM

COc1cc(-c2nc(NC3CC3)nc3sc(C(N)=O)c(N)c23)ccc1C(F)(F)F [Example 233]
IC50 [2]: 0.1 to 10 µM
IC50 ([1]; Homo sapiens, A-375, 72 h): 10 to 20 µM

NC(=O)c1sc2nc(NC3CC3)nc(-c3ccc(C(F)(F)F)cc3)c2c1N [Example 235]
IC50 [2]: 0.1 to 10 µM
IC50 ([1]; Homo sapiens, A-375, 72 h): 20 to 30 µM

COc1cc(-c2nc(NC(C)(C)CO)nc3sc(C(N)=O)c(N)c23)cc(Cl)c1Cl [Example 263]
IC50 ([1]; Homo sapiens, A-375, 72 h): 10 to 20 µM

NC(=O)c1sc2nc(NC3CNC3)nc(-c3ccc(Cl)c(Cl)c3)c2c1N [Example 227]
IC50 [2]: 0.1 to 10 µM
IC50 ([1]; Homo sapiens, A-375, 72 h): 0.1 to 10 µM

NC(=O)c1sc2nc(NC3CC3)nc(-c3cccc([N+](=O)[O-])c3)c2c1N [Example 244]
IC50 [2]: 0.1 to 10 µM
IC50 ([1]; Homo sapiens, A-375, 72 h): 30 to 60 µM

C[C@@H](CO)Oc1nc(-c2ccc(Cl)c(Cl)c2)c2c(N)c(C(N)=O)sc2n1 [Example 211]
IC50 ([1]; Homo sapiens, A-375, 72 h): 10 to 20 µM

C[C@H](O)[C@H](C)Oc1nc(-c2ccc(Cl)c(Cl)c2)c2c(N)c(C(N)=O)sc2n1 [Example 213]
IC50 [2]: 0.1 to 10 µM
IC50 ([1]; Homo sapiens, A-375, 72 h): > 60 µM

COc1cncc(-c2nc(N)nc3sc(C(N)=O)c(N)c23)c1 [Example 277]
IC50 ([1]; Homo sapiens, A-375, 72 h): 0.1 to 10 µM

NC(=O)c1sc2nc(NC3CC3)nc(-c3cccc(NC(=O)C(F)(F)F)c3)c2c1N [Example 246]
IC50 [2]: 10 to 20 µM
IC50 ([1]; Homo sapiens, A-375, 72 h): > 60 µM

CC(C)[C@H](CO)Nc1nc(-c2ccc(Cl)c(Cl)c2)c2c(N)c(C(N)=O)sc2n1 [Example 198]
IC50 [2]: 0.1 to 10 µM
IC50 [1]: 10 to 20 µM

CCOc1nc(-c2cccc(C(F)F)c2)c2c(N)c(C(N)=O)sc2n1 [Example 285]
IC50 [2]: 0.1 to 10 µM
IC50 ([1]; Homo sapiens, A-375, 72 h): 10 to 20 µM
